Data set [1] deals with S. aureus cells. The data set can be described thus: Lytic assay using purified protein (SYTOX kinetic assay). In kind it is cell-based, Staphylococcus aureus. As to the method: S. aureus cells were grown either to mid-log or to saturation in tryptic soy broth (TSB) at 37° C. with shaking. The cells were harvested by centrifugation and washed once in phosphate buffered saline (PBS: 2.7 mM KCl, 1.5 mM KH2PO4, 8.9 mM Na2HPO4, 136.9 mM NaCl, pH 7.4). The assay was performed in 96-well, black, clear bottom plates from Greiner Bio-One (Monroe, N.C.). The final (250 μl) reaction was composed of 10 μl of P. pastoris culture supernatant, S. aureus cells at OD600=1.5, and 5 μM SYTOX Green (Thermo Fisher Scientific; Waltham, Mass.), all in PBS. Data were collected using SPECTRAMAX GEMINI Fluorescence Microplate Reader (Molecular Devices; Sunnyvale, Calif.) using an excitation/emission of 504/523 nm, and rates were determined from the slope of the steepest linear portion of the trace. Each assay was performed with 500 ng of commercially-sourced lysostaphin (ssLys) as an internal control.
The activity of purified lysostaphin variants was examined using the SYTOX kinetic assay as previously described in Chapter 2, Section 3.2.6. 200 ng of purified enzyme (instead of culture supernatant) was used in each reaction.

In data set [2] the test system is S. aureus 6445. The data set can be described thus: MIC assay. Format: cell-based, Staphylococcus aureus. Conditions: biological duplicates.
The nature of data set [3]: P. pastoris expression level by SDS-PAGE. The note with it: densitometry of SDS-PAGE gels. As to the method: After DH5a clones were confirmed for the presence of correct catalytic domain mutation by sequence analysis, the purified plasmid was digested with SacI High-Fidelity restriction enzyme prior to electroporation into P. pastoris strain GS115. The resulting transformants were grown on MD plates (1.34% yeast nitrogen base, 0.000004% biotin, 2% dextrose and 1% agar). For expression studies, clones were grown in BMGY media (1% yeast extract, 2% peptone, 1.34% yeast nitrogen base, 0.000004% biotin, 1% glycerol, 100 mM phosphate buffer, pH 6) at 30° C. in 500 ml shake flasks covered with four layers of cheese cloth for enhanced oxygen flow to the yeast. […] The purity of lysostaphin was determined using SDS-PAGE. The protein concentration was quantified using ND-1000 Spectrophotometer (NanoDrop Technologies; Wilmington, Del.). To ensure accuracy, protein absorbance measure was adjusted using the absorbance adjustment factor of 0.4 for both wild-type lysostaphin and its variants. Briefly, the adjustment factor was calculated as the inverse of the reported Abs 0.1% (=1 g/L) value (ProtParam, ExPASy).
The amount of protein used in each assay was estimated from SDS-PAGE gels. […] The gel was stained using GELCODE Blue Stain Reagent from Thermo Fisher Scientific (Carlsbad, Calif.) and bands quantified using Quantity Tools from Image Lab 5.1 software (Bio-Rad Laboratories; Hercules, Calif.). […]

The test system of data set [4] is S. aureus strain SA113. In words: MIC activity relative to LST^WT. Format: cell-based, Staphylococcus aureus. The note with it: % fold dilution relative to wild type. As to the method: LST and its derivatives were secreted from P. pastoris. Briefly, recombinant Pichia strains were cultured in a 2.5 L bioreactor (Applicon Biotechnology), and the proteins were captured from the supernatant by polyethylene glycol-6000 (PEG-6000) precipitation and purified to homogeneity by SP SEPHAROSE F.F. cation exchange chromatography. Endotoxin was removed from the protein preparation by TRITON-X114 extraction (Liu, et al. (1997) Clin. Biochem. 30:455-63). Protein expression levels were estimated by densitometry analysis of SDS-PAGE gels.

Data set [5] concerns MRSA strain USA400. The data set can be described thus: Efficacy of F12 in recurrent systemic MRSA infections. Format: in vivo, DR4 HLA transgenic mice. The note with it: for # Treated Mice Surviving: 500 μg enzyme 1 hour later. As for the experimental part:
In a similar set of experiments, the immunogenicity and efficacy of variant F12 was compared to wild-type LST in the absence of adjuvant using DR4 HLA transgenic mice. At week 0, mice were challenged with an intraperitoneal injection of 2×10^8 MRSA strain USA400, and 1 hour later the mice were treated with 500 μg wild-type LST or 500 μg variant F12, given as a single bolus subcutaneous injection. Subsequently, mice were challenged weekly with an intraperitoneal injection of 1×10^9 MRSA strain USA400, and treated as above. Antibody titers were measured weekly beginning at week 2. […] Variant F12 rescued all mice from four recurrent, systemic, MRSA infections (Table 24). The substantially lower antibody titers elicited by variant F12 indicate that this variant is […] than wild-type LST.

As for “Wild-Type: wild-type lysostaphin (SEQ ID NO:49) produced in P. pastoris; aglycosylated Ser126Pro backbone in the design studies [reference compound]”, the “% Wild-Type Activity” value in data set [1] (200 ng purified enzyme) was 100%. Moreover, the “% WT Lytic Rate” value in data set [1] (biological duplicates) amounted to 100 ± 30%. Moreover, the “MIC Strain 6445” value in data set [2] was 0.03 µg/mL. For the same substance, in data set [3], the “Expression Level (% WT)” value was 100 % WT. Also, in data set [4], the “Activity (% WT)” value was 100 % WT. Besides, the “recurrent systemic MRSA infections from which mice were rescued” value in data set [5] (500 μg s.c., weekly challenges, no adjuvant) is “four”. Further, the “# Treated Mice Surviving” value in data set [5] (Week 0, 2×10^8 MRSA USA400 i.p., no adjuvant) came out at 7; in data set [5] (Week 1, 1×10^9 MRSA USA400 i.p.), 6; in data set [5] (Week 2, 1×10^9 MRSA USA400 i.p.), 5; in data set [5] (Week 3, 1×10^9 MRSA USA400 i.p.), 4; in data set [5] (Week 4, 1×10^9 MRSA USA400 i.p.) it was 0.

The values are drawn from patent US11091749B2, “Deimmunized lysostaphin and methods of use” (TRUSTEES OF DARTMOUTH COLLEGE, priority 2014, dated 2021).
